We go through three substances from paper PMC9513234, “Synthesis and Biological Evaluation of Termini-Modified and Cyclic Variants of the Connexin43 Inhibitor Peptide5” (Frontiers in Chemistry, 2022).

Data set [1] deals with gap junctions in hCMVEC cells. Particulars: 100 µM, mean ± SEM. As to the method:
We next investigated the ability of peptide5 variants to inhibit gap junctional communication using a scrape loading assay. In this assay, the cells in culture are loaded with a dye (Lucifer Yellow dilithium salt (LY), M.W. 457.25 Da) of molecular size (<1 kDa) that is able to transit through the gap junctions and the degree of dye spread is then measured by counting the number of cells that contain LY (Supplementary Material, Method 4) ^1. Consistent with our previous study, peptide5 (1) and Cbx reduced the degree of dye spread following incubation with LY (56.16 ± 2.1%; p < 0.0001 and 16.2 ± 1.1%; p < 0.0001, respectively) compared to the untreated controls (Figure 12).
Human cerebral microvascular endothelial cells (hCMVEC) were purchased from Applied Biological Materials (ABM) Inc, Canada (cat # T0259) (O'Carroll et al., 2015). Cells were cultured in 1 μg/cm^2 collagen I (Gibco) coated T75 flasks from Corning (NY, USA). The growth media was M199 media (Gibco), supplemented with 10% FBS, 1 μg/mL hydrocortisone (Sigma), 3 μg/mL human FGF (Peprotech), 10 μg/mL human EGF (Peprotech), 10 μg/mL heparin (Sigma), 2 mM Glutamax (Gibco), and 80 μM butyryl cAMP (Sigma).
For experiments hCMVECs cells were plated M199 media at a density of 4 x 10^5 cells per well in a collagen coated (1 µg/cm^2) 12-well plate the day prior to the experiment to ensure a confluent monolayer of hCMVECs. On the day of the experiment cells were pre-incubated in carbenoxolone, (100 µM) Peptide5 (5–100 µM) or modified analogues (100 µM) or M199 as a negative control. Cells were washed three times with phosphate buffered saline (PBS) without Ca^2+ or Mg^2+ and incubated in 0.05% Lucifer Yellow (LY) (Sigma), a fluorescent dye that is transferred through coupled gap junction channels (el-Fouly, Trosko, & Chang, 1987), and scrape-wounded with a size 10 carbon steel surgical blade (Swann-Morton, England). Following a 5 minute incubation at 37 °C in 95% O2 and 5% CO2 without light, the 0.05% LY solution was removed. Cells were rinsed four times with HBSS containing Ca^2+ ^+, and then fixed in 4% paraformaldehyde (PFA) in PBS at pH 7.4 for 10 minutes at room temperature. Cells were then washed 3 times in PBS to remove PFA before fluorescent imaging. Fluorescent images were visualized using a Nikon TE2000E inverted fluorescent microscope (10x magnification, 0.3 numerical aperture), and captured using a Digital Sight CCD camera and Eclipse Net software (Nikon). Three images within each well from three independent experiments were taken for analysis, and the total number of cells showing dye uptake from those that had been loaded were counted manually by masked observers. Each peptide was tested in at least an n of 2 separate experiments.

The nature of data set [2]: Human serum stability assay (RP-HPLC). As to the method:
We then evaluated the N-methylated variants 7 and 8, D amino acid variants 9 and 10, and the two carbo cyclic peptides 39 and 42. Each peptide was incubated with 25% aq. human serum at 37°C, and 6 aliquots were extracted within 48 h. The stability of each peptide upon exposure to human serum was then analyzed via analytical RP HPLC, and the amount of peptide still present at each time point was recorded relative to t = 0 h.
Whole blood was collected from a healthy volunteer and stored in a covered test tube and was allowed to clot by leaving it undisturbed at r.t. for ca. 1 h. The clot was removed by centrifugation at 1,000-2,000 x g for 10 min and the resulting supernatant was designated as the serum. The serum was collected and stored in 0.5 mL aliquots, whereby the samples were stored at - 20 °C.
200 µM concentration of peptide was incubated in 25% aq. human serum (1.7 mL) and left to shake at 37 °C. Aliquots of human serum-peptide mixture (270 µL) were taken at given times (0 h, 1 h, 4 h, 8 h, 24 h, and 48 h) and threefold excess of acetonitrile (810 µL) was added to the aliquot and left for 1 h at 0 °C. The samples underwent centrifugation (14,500 rpm) for 30 min at r.t. and the supernatant was subsequently collected. Upon evaporation of the solvents, the resulting dry, pale-yellow residue was dissolved in water containing 0.1 % TFA.
The dissolved solution was analysed via analytical RP HPLC and the quantity of the peptide was expressed as a percentage relative to the peptide peak area obtained at time zero (i.e. 100% peptide amount at t = 0 h). A scatterplot graph representing percentage of peptide versus time was generated.

A further data set concerns hemichannels. The arrangement: method as in O’Carroll et al., 2008. Particulars: in vitro; ref O’Carroll et al., 2008; cited from earlier work.
The test system of a further data set is gap junctions. Particulars: cited from earlier work.
The conditions of data set [3]: cited from earlier work.
Details of data set [4]: method as in Kumagai et al., 1991. Particulars: ref Kumagai et al., 1991; cited from earlier work.

In the case of “H-VDCFLSRPTEKT-OH [peptide5, H2N-VDCFLSRPTEKT-CO2H]”, the “LY dye spread (number of LY-positive cells) as percentage of untreated control” value in data set [1] came out at 56.16 ± 2.1%. The “time to complete degradation in human serum” value in data set [2] was at most 10 h. Besides, the “concentration selectively inhibiting hemichannels” value in the data set on hemichannels was at least 5 µM. Moreover, the “concentration inhibiting both gap junctions and hemichannels” value with gap junctions (in vitro, higher concentrations, ref O’Carroll et al., 2008) is listed as 500 µM. Also, the “half-life in rat serum” value in data set [3] is given as 5 min.

Turning to SRPTEKT [a truncated peptide5], the “gap junction inhibition compared with peptide5 (result in words)” value with gap junctions (ref Kim et al., 2017b) is reported as “equally effective as a gap junction inhibitor”.

As to cilengitide, in data set [4], the “increase in binding compared to its linear form” value is listed as 10 fold.
